Results as given in publication PMC11375786, “Induction of Paraptotic Cell Death in Cancer Cells by Triptycene–Peptide Hybrids and the Revised Mechanism of Paraptosis II” (Biochemistry, 2024).
Numbered stars: 1 amine (or outer) side, 2 acyl side, 3 side chain; on linkers, the order of the positions; unused ones are H or OH. Bridge positions count the residues as written; N and C are the ends. Square brackets hold non-standard residues; d marks the D form. Peptide text beside a SMILES is read from it. I, II: the chains in the order shown. X1 = O=C(COc1cccc2c1C1c3c(OCC(=O)NCCCCCCCCN[*:2])cccc3C2c2cccc(OCC(=O)NCCCCCCCCN[*:3])c21)NCCCCCCCCN[*:1]; Cha = N[C@@H](CC1CCCCC1)C(=O)O

Assays:
[1] = tested on: HeLa-S3 cells; assay: cells; conditions: 1 h
Experimental: (§1) HeLa S3 cells (human cervical carcinoma) were cultured in Minimum essential medium (MEM) containing 10% FBS, penicillin, and streptomycin. A549 cells (human lung carcinoma) and IMR90 cells (human fetal lung fibroblast) were cultured in Dulbecco’s modified Eagle’s medium (DMEM) with 10% FBS, penicillin, and streptomycin. All cells were cultured at 37 °C under a humidified atmosphere containing 5% CO2.
(§2) Jurkat, HeLa-S3, A549 cells (2.0 × 10^5 cells/mL) and IMR90 cells (1.0 × 10^5 cells/mL) were incubated in the presence of 3–7 for 1 h, and etoposide, cisplatin and celastrol for 24 h (50 μL) in cell culture medium under CO2 at 37 °C in 96-well plates (BD Falcon). MTT reagent (5 mg/mL) in PBS (10 μL) was then added to the cells. After incubation at 37 °C for 4 h, a formazan lysis solution (10% sodium dodecyl sulfate (SDS) in 0.01 N HCl) (100 μL) was added and the resultant solution was incubated overnight under the same conditions, which was followed by measurement of the absorbance at 570 nm using a microplate reader (ARVO, PerkinElmer).

[2] = tested on: IMR90 cells; assay: cells; conditions: 1 h
Experimental: as §1, §2

[3] = tested on: Jurkat cells; assay: cells; conditions: 1 h
Experimental: as §1, §2

[4] = tested on: A549 cells; assay: cells; conditions: 1 h
Experimental: as §1, §2

[5] = tested on: Jurkat cells; assay: MTT assay of Jurkat cells treated with 4 or celastrol in the presence of inhibitors; assay type: cell-based; conditions: DIDS 75 or 100 μM, RuRed 75 μM; for Inhibition of 4-induced cell death in Jurkat cells: 4 2.5 μM 1 h, Z-VAD-fmk 15 μM, necrostatin-1 30 μM, 3-MA 10 μM, CCCP 40 μM, 2-APB 50 or 100 μM; for Inhibition of celastrol-induced cell death in Jurkat cells: celastrol 5 μM 24 h, 2-APB 50 μM
Experimental: (a) Jurkat cells: Jurkat cells (2.0 × 10^5 cells/mL) in RPMI 1640 medium with 10% FBS were pretreated with the inhibitors (Z-VAD-fmk (final concentration = 15 μM), necrostatin-1 (final concentration = 30 μM), 3-MA (final concentration = 10 μM), and DIDS (75 or 100 μM)) for 3 h or pretreated with other inhibitors (CCCP (40 μM), FCCP (40 μM), 2-APB (50 or 100 μM) and RuRed (75 μM)) for 1 h under 5% CO2 at 37 °C. After incubation, 4 (final concentration = 2.5 μM) was added to the cell suspension, which was then incubated for 1 h at 37 °C. To test the effect of celastrol, the cells were pretreated with the aforementioned inhibitors and then incubated with celastrol (5 μM) for 24 h. MTT reagent (5 mg/mL) in PBS (10 μL) was added to the cells. After incubation at 37 °C for 4 h, a formazan lysis solution (10% sodium dodecyl sulfate (SDS) in 0.01 N HCl) (100 μL) was added, and the resultant solution was incubated overnight under the same conditions, followed by measurement of the absorbance at 570 nm using a microplate reader (ARVO, PerkinElmer).

Compound | EC50 [1] [µM] | EC50 [2] [µM] | EC50 [3] [µM] | EC50 [4] [µM] | Inhibition of 4-induced cell death in Jurkat cells [5] | Inhibition of celastrol-induced cell death in Jurkat cells [5]
N.N.N.N.N.N.N.N.N.N.N.N.N.N.[Cl-].[Cl-].[Cl-].[Cl-].[Cl-].[Cl-].[O-2].[O-2].[Ru+3].[Ru+3].[Ru+4] [RuRed, Ruthenium Red] | – | – | – | – | rather weak | did not significantly stop cell death
NCCCC[C@H](NC(=O)[C@H](CCCCN)NC(=O)[C@@H](N)CCCCN)C(=O)N[C@@H](CC1CCCCC1)C(=O)NCC(=O)O [KKKChaG, H2N-KKKChaG] (H-KKK[Cha]G-OH; C-terminus assumed) | > 25 | > 25 | > 25 | > 25 | – | –
NCCOB(c1ccccc1)c1ccccc1 [2-APB] | – | – | – | – | rather weak | did not significantly stop cell death

Second part, led by results:

EC50 [1] [µM] | EC50 [2] [µM] | EC50 [3] [µM] | EC50 [4] [µM] | Compound | Inhibition of 4-induced cell death in Jurkat cells [5] | Inhibition of celastrol-induced cell death in Jurkat cells [5]
3.3 ± 0.2 | > 25 | 1.2 ± 0.1 | – | NCCCC[C@H](NC(=O)[C@H](CC1CCCCC1)NC(=O)[C@H](CCCCN)NC(=O)[C@H](CC1CCCCC1)NC(=O)[C@@H](N)CCCCN)C(=O)NCC(=O)NCCCCCCCCNC(=O)COc1cccc2c1C1c3c(OCC(=O)NCCCCCCCCNC(=O)CNC(=O)[C@H](CCCCN)NC(=O)[C@H](CC4CCCCC4)NC(=O)[C@H](CCCCN)NC(=O)[C@H](CC4CCCCC4)NC(=O)[C@@H](N)CCCCN)cccc3C2c2cccc(OCC(=O)NCCCCCCCCNC(=O)CNC(=O)[C@H](CCCCN)NC(=O)[C@H](CC3CCCCC3)NC(=O)[C@H](CCCCN)NC(=O)[C@H](CC3CCCCC3)NC(=O)[C@@H](N)CCCCN)c21 [compound 6] (I: H-K[Cha]K[Cha]KG / II: H-K[Cha]K[Cha]KG / III: H-K[Cha]K[Cha]KG; linker I:C-II:C-III:C via X1) | – | –
2.7 ± 0.5 | > 12.5 | 2.1 ± 0.1 | 1.5 ± 0.1 | N=C(N)NCCC[C@H](NC(=O)[C@H](CC1CCCCC1)NC(=O)[C@H](CCCNC(=N)N)NC(=O)[C@H](CC1CCCCC1)NC(=O)[C@@H](N)CCCNC(=N)N)C(=O)NCC(=O)NCCCCCCCCNC(=O)COc1cccc2c1C1c3c(OCC(=O)NCCCCCCCCNC(=O)CNC(=O)[C@H](CCCNC(=N)N)NC(=O)[C@H](CC4CCCCC4)NC(=O)[C@H](CCCNC(=N)N)NC(=O)[C@H](CC4CCCCC4)NC(=O)[C@@H](N)CCCNC(=N)N)cccc3C2c2cccc(OCC(=O)NCCCCCCCCNC(=O)CNC(=O)[C@H](CCCNC(=N)N)NC(=O)[C@H](CC3CCCCC3)NC(=O)[C@H](CCCNC(=N)N)NC(=O)[C@H](CC3CCCCC3)NC(=O)[C@@H](N)CCCNC(=N)N)c21 [compound 7] (I: H-R[Cha]R[Cha]RG / II: H-R[Cha]R[Cha]RG / III: H-R[Cha]R[Cha]RG; linker I:C-II:C-III:C via X1) | – | –
5.3 ± 0.5 | > 25 | 2.2 ± 0.5 | 8.6 ± 1.8 | NCCCC[C@H](NC(=O)[C@H](CCCCN)NC(=O)[C@@H](N)CCCCN)C(=O)NCC(=O)NCC(=O)NCCCCCCCCNC(=O)COc1cccc2c1C1c3c(OCC(=O)NCCCCCCCCNC(=O)CNC(=O)CNC(=O)[C@H](CCCCN)NC(=O)[C@H](CCCCN)NC(=O)[C@@H](N)CCCCN)cccc3C2c2cccc(OCC(=O)NCCCCCCCCNC(=O)CNC(=O)CNC(=O)[C@H](CCCCN)NC(=O)[C@H](CCCCN)NC(=O)[C@@H](N)CCCCN)c21 [compound 3] | – | –
